Data set [1] deals with brachyury expression in ES03 hESCs. Description: Brachyury expression (mesendoderm induction) by western blot and immunostaining. The data set is classed as cell-based, human. How it is done: Cells were fixed with 4% paraformaldehyde for 15 min at room temperature and then stained with primary and secondary antibodies (Table 3) in PBS plus 0.4% Triton X-100 and 5% non-fat dry milk (Bio-Rad). Nuclei were stained with Gold Anti-fade Reagent with DAPI (Invitrogen). An epifluorescence microscope (Leica DM IRB) with a QImaging® Retiga 4000R camera was used for imaging analysis. Cells were lysed in M-PER Mammalian Protein Extraction Reagent (Pierce) in the presence of Halt Protease and Phosphatase Inhibitor Cocktail (Pierce). Proteins were separated by 10% Tris-Glycine SDS/PAGE (Invitrogen) under denaturing conditions and transferred to a nitrocellulose membrane. After blocking with 5% dried milk in TBST, the membrane was incubated with primary antibody overnight at 4° C. The membrane was then washed, incubated with an anti-mouse/rabbit peroxidase-conjugated secondary antibody (Table 3) at room temperature for 1 hour, and developed by SuperSignal chemiluminescence (Pierce).

The subject of data set [2] is hPSCs. The data set can be described thus: Cell death of hPSCs on Gsk3 inhibitor treatment in albumin-free medium. The data set is classed as cell-based, human. How it is done:
hPSCs maintained on a Synthemax-coated surface in E8 or mTeSR1 medium were dissociated into single cells with Accutase® (Life Technologies) at 37° C. for 5 min and then seeded onto a Synthemax-coated cell culture dish at 100,000-200,000 cell/cm^2 in E8 supplemented with 5 μM ROCK inhibitor Y-27632 (Selleckchem)(day −2) for 24 hours. Cells were then cultured in E8, changed daily. […] At day 0 the cell density should be between 250,000 and 400,000 cells/cm^2. At day 3, half the medium was changed to fresh RPMI medium containing 2.5 μM IWP2 (Tocris). At day 5, the entire medium was changed with RPMI medium. Cells were maintained in the cardiomyocyte maintenance medium (CMM: RPMI supplemented with 10 μg/ml insulin (sigma) and 200 μg/ml L-Ascorbic acid 2-phosphate sesquimagnesium salt hydrate (sigma)) starting from day 7, with the medium changed every 2 days.

Results on one compound are retold here after patent US9765299B2, “Chemically defined albumin-free conditions for cardiomyocyte differentiation of human pluripotent stem cells” (Wisconsin Alumni Research Foundation, priority 2014, dated 2017).

As for `Cc1c[nH]c(-c2cnc(NCCNc3ccc(C#N)cn3)nc2-c2ccc(Cl)cc2Cl)n1` [CH], the brachyury expression entry in data set [1] (6 μM CH, albumin-free RPMI, after 24 hr) is listed as “induced robust brachyury expression”; in data set [1] (30 μM CH, medium containing 1% HRA), “induced brachyury expression”; in data set [1] (CH concentrations up to 6 μM, presence of 1% human recombinant albumin (HRA)), “unable to induce brachyury expression”. Further, the cell death entry in data set [2] (12 μM at day 0, by 24 hr, absence of BSA) is given as “prolific cell death”; in data set [2] (same concentration of CH as Burridge et al., 2 days, albumin-free medium), “substantial cell death”.
